Consider 19 compounds from ChEMBL document CHEMBL1201862, “PubChem BioAssay data set” (2004).

Data set [1] concerns the target Cytochrome P450 2D6 (Homo sapiens, UniProt P10635).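 Also: CYP2D6 member of a cytochrome P450 panel assay.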
Data set [2] addresses Cytochrome P450 3A4 (Homo sapiens, UniProt P08684).
Data set [3] has as its target T1, Cytochrome P450 2C9 (Homo sapiens, UniProt P11712).
Data set [4] is described as follows: inhibitors of intracellular T. cruzi replication, confirmation, NIH3T3 host cells, beta-gal luminescence (AID 2044).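 Also: intracellular parasites grown in NIH/3T3 mouse fibroblasts as host cells; luminescent beta-galactosidase reporter signal from transgenic T. cruzi replicating inside host cells; inhibitors lower the luminescence signal.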 Format: functional, cell-based.
The target in data set [5] is Nonstructural protein 1 (Influenza A virus, UniProt Q194T2). Format: functional, Influenza A virus (A/California/07/2009(H1N1)).
Nonstructural protein 1, sequence (Q194T2 whole entry): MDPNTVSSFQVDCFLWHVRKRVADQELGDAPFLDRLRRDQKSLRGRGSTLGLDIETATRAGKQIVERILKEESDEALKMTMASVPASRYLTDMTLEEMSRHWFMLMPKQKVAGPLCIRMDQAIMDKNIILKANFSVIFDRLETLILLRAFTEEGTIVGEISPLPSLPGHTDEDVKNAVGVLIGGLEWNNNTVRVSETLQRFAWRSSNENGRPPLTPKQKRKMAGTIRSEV
The nature of data set [6]: growth suppression of PTEN-null colon cells, dose response, cell-based, HCT116 PTEN knockout (AID 1047).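 Also: HCT116 colon tumor cells with PTEN knocked out; cells exposed to compound for 60 hours before readout; potency for loss of cell viability measured by luminescence.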 Format: functional.
Data set [7] is described as follows: Luminescence Cell-Based Dose Retest to Confirm Inhibitors of Cancer Stem Cells. [Related pubchem assays (depositor defined):AID2717, AID2721]. It is filed as functional. Particulars: Homo sapiens.
Data set [8] can be described thus: growth suppression of beta-catenin-knockout colon cells, dose response, cell-based, HCT116, human colon tumor (AID 1045).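 Also: HCT116 colon tumor cells with beta catenin knocked out; cells exposed to compound for 60 hours.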 Format: functional.
A short description of data set [9]: cytotoxicity toward NIH3T3 fibroblasts, dose response, counter-screen, cell-based, ATP luminescence, mouse fibroblasts (AID 2010).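 Also: cells exposed to compound for about 90 hours before reading.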 It is filed as functional. (In general: A counterscreen serves to expose hits that act by an unwanted route or on another target.)
In data set [10] the target is T2, Caspase-3 (Homo sapiens, UniProt P42574).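 Also: Dose-response selectivity test against caspase-3 for candidate inhibitors of sentrin-specific proteases (SENPs).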
T2 sequence (P42574 whole entry): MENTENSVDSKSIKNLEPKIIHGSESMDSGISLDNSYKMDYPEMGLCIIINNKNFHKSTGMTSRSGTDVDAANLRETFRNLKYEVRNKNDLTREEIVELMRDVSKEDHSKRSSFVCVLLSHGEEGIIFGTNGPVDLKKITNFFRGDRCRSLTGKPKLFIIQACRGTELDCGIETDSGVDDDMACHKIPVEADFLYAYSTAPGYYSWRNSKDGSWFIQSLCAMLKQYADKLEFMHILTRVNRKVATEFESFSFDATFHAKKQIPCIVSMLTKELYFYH
It is filed as functional.

The target in data set [11] is T3, Sentrin-specific protease 8 (Homo sapiens, UniProt Q96LD8).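 Also: luminescence read-out of SENP8 inhibition, dose-response confirmation following an ultra-high-throughput screen.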
T3 sequence (Q96LD8 whole entry): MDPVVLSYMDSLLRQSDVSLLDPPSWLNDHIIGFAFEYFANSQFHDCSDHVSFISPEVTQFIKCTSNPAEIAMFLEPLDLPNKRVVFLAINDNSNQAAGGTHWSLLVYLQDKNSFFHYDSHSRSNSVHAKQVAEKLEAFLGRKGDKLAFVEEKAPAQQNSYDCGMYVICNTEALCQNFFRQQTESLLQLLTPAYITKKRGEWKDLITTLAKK
Format: functional.

The target of data set [12] is T4, Sentrin-specific protease 7 (Homo sapiens, UniProt Q9BQF6).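 Also: Luminescence-based dose-response confirmation of ultra-high-throughput screening hits, measuring inhibition of SENP7.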
T4 sequence (Q9BQF6 whole entry): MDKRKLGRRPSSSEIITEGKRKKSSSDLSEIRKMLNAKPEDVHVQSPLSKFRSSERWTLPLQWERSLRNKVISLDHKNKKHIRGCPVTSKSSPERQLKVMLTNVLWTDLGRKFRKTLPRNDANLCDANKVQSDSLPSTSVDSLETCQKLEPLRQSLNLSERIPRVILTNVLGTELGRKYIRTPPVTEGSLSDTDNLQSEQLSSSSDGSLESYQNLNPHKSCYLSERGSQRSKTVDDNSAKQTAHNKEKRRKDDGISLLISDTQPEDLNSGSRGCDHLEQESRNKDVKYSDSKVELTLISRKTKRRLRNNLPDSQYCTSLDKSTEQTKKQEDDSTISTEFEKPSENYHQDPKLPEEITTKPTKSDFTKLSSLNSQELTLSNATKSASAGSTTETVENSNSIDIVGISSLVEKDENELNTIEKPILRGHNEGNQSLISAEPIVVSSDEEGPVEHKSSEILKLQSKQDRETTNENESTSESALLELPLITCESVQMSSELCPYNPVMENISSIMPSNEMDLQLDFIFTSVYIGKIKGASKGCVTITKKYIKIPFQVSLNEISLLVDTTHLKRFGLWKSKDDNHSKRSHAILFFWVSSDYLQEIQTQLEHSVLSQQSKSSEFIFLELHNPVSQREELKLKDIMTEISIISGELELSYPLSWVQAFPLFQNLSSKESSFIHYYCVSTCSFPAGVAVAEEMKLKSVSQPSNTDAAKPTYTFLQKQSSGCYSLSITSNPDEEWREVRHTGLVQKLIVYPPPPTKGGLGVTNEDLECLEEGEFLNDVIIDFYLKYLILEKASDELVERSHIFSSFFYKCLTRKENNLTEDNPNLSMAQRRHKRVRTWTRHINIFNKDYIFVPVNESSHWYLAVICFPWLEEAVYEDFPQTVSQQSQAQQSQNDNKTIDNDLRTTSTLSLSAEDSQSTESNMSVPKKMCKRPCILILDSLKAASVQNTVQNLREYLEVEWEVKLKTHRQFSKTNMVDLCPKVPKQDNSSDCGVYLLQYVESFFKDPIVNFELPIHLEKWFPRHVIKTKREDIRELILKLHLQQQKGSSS
Format: functional.

For data set [13], the target named is T5, Sentrin-specific protease 6 (Homo sapiens, UniProt Q9GZR1).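 Also: Luminescence-based dose-response confirmatory assay of SENP6 inhibition, following up an ultra-high-throughput screen.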
T5 sequence (Q9GZR1 whole entry): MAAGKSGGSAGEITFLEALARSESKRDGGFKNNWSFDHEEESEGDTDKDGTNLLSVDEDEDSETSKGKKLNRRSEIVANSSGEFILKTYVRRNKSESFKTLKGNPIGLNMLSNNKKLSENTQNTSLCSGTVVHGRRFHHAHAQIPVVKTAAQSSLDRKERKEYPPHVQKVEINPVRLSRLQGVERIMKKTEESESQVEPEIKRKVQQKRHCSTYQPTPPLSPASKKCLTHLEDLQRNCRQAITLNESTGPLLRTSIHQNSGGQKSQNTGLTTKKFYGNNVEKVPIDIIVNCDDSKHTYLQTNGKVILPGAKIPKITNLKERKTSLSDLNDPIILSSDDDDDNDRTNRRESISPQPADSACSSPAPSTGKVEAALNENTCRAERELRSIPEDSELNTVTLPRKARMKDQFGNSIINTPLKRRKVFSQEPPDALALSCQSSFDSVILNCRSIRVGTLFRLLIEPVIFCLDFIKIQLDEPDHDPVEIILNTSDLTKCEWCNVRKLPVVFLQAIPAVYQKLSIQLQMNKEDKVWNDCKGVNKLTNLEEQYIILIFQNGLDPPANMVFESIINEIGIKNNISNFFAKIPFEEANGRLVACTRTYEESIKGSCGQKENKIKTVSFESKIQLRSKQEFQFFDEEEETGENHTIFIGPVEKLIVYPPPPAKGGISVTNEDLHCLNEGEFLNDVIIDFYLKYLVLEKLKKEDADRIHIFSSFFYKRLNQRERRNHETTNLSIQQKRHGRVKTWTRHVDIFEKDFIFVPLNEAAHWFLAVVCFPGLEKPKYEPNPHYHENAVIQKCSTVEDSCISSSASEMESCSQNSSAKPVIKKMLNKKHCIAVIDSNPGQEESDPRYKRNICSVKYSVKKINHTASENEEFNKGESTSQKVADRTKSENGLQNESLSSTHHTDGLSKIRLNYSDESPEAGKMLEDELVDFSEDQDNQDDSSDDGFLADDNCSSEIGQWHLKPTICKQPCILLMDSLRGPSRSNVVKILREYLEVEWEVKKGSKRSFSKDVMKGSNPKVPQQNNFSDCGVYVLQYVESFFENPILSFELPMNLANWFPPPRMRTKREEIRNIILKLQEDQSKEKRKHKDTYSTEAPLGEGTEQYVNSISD
Format: functional.

A short description of data set [14]: cytotoxicity in HEK-293T cells, dose response, cytotoxicity control for TCR NF-kB inhibitor project, luminescence, T-cell screen hits (AID 489026).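 Also: cells exposed to compound about 14 hours before the viability readout.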 It is filed as functional, cell-based.
The subject of data set [15] is INS1. Nature of the data set: beta cell apoptosis inhibitors, cytokine rescue, dose response, luminescence, retest (AID 449756).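 Also: cell death triggered by IL-1 beta plus TNF-alpha plus IFN-gamma mixture; protective hits raise ATP signal compared with cytokine alone wells.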 Format: functional, cell-based. Particulars: Rattus norvegicus.
For data set [16], the target named is T6, Cytochrome P450 1A2 (Homo sapiens, UniProt P05177).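 Also: PubChem cytochrome P450 panel assay, CYP1A2 panel member.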
T6 sequence (P05177 whole entry): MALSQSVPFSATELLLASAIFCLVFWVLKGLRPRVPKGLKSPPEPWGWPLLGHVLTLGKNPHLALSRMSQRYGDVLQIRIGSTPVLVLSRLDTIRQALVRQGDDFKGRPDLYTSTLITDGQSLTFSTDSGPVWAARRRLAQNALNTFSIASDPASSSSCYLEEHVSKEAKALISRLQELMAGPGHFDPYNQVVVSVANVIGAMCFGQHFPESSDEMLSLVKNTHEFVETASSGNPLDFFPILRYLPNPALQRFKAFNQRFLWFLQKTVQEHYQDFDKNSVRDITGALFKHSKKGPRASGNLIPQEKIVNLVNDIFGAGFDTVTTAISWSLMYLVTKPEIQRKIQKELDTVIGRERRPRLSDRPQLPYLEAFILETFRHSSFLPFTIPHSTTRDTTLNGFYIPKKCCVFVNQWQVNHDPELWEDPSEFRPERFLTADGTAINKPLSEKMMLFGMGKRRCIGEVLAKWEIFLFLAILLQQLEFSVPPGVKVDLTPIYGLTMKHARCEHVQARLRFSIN

The target of data set [17] is T1, Cytochrome P450 2C9. This is another data set of the same source.
In data set [18] the test system is H9c2. Nature of the data set: cells. Format: functional, cell-based. Particulars: Rattus norvegicus, H9c2, Myocardium.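 Also: confirmatory concentration-response retest of ultra-high-throughput screening hits for modulation of myocardial damage; cell death induced by hydrogen peroxide oxidative stress; compound pretreatment for 60 min then peroxide exposure for 2 h; potency is for protecting the cells against peroxide damage rather than for killing them.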
Data set [19] has as its target T7, Fatty acid synthase (Homo sapiens, UniProt P49327). Nature of the data set: FAS thioesterase domain inhibitors, dose response, biochemical, kinetic fluorescence intensity (AID 624326).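 Also: rate of fluorescence rise from hydrolysis of a fluorogenic O-methyl fluorescein ester substrate.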 It is filed as functional.
The target of data set [20] is T7, Fatty acid synthase. The data set can be described thus: FAS thioesterase domain inhibitors, dose response, biochemical, endpoint fluorescence intensity, uHTS hits (AID 624327).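 Also: fluorescence from hydrolysis of an O-methyl fluorescein acyl ester substrate by the enzyme.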 Format: functional.
Data set [21] addresses Induced myeloid leukemia cell differentiation protein Mcl-1 (Homo sapiens, UniProt Q07820). It is filed as functional.

Active and inactive are the calls of the source. Where only a bound is given, the exact number is not on record here.

Cytochrome P450 2D6, sequence (P10635 whole entry): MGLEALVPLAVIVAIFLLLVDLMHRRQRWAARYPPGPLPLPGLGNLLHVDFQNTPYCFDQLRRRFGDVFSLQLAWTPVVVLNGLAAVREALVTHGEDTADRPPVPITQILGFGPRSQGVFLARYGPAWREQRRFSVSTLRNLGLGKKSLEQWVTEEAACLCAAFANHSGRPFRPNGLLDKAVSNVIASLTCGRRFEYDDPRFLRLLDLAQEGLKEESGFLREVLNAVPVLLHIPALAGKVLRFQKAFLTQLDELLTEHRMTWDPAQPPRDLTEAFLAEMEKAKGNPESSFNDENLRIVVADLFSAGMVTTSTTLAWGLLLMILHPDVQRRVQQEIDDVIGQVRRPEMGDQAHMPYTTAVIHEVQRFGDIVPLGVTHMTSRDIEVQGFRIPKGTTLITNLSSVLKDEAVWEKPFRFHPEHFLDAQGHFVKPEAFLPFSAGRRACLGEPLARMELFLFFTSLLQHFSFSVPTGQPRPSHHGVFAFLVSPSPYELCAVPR
T1 sequence (P11712 whole entry): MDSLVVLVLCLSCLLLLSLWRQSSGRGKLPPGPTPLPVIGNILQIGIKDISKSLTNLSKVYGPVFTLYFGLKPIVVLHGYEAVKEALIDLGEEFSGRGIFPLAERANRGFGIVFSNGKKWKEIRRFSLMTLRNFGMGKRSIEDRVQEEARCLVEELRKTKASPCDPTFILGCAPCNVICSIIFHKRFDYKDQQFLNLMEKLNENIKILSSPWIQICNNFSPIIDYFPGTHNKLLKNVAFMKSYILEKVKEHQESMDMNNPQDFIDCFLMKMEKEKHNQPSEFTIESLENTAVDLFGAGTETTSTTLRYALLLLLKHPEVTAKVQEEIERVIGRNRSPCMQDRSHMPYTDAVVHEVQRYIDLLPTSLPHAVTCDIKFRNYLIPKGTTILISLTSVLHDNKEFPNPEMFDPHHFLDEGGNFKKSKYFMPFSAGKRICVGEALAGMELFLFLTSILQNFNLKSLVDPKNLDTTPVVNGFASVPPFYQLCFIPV
T7 sequence (P49327 whole entry, the tested form may be a part): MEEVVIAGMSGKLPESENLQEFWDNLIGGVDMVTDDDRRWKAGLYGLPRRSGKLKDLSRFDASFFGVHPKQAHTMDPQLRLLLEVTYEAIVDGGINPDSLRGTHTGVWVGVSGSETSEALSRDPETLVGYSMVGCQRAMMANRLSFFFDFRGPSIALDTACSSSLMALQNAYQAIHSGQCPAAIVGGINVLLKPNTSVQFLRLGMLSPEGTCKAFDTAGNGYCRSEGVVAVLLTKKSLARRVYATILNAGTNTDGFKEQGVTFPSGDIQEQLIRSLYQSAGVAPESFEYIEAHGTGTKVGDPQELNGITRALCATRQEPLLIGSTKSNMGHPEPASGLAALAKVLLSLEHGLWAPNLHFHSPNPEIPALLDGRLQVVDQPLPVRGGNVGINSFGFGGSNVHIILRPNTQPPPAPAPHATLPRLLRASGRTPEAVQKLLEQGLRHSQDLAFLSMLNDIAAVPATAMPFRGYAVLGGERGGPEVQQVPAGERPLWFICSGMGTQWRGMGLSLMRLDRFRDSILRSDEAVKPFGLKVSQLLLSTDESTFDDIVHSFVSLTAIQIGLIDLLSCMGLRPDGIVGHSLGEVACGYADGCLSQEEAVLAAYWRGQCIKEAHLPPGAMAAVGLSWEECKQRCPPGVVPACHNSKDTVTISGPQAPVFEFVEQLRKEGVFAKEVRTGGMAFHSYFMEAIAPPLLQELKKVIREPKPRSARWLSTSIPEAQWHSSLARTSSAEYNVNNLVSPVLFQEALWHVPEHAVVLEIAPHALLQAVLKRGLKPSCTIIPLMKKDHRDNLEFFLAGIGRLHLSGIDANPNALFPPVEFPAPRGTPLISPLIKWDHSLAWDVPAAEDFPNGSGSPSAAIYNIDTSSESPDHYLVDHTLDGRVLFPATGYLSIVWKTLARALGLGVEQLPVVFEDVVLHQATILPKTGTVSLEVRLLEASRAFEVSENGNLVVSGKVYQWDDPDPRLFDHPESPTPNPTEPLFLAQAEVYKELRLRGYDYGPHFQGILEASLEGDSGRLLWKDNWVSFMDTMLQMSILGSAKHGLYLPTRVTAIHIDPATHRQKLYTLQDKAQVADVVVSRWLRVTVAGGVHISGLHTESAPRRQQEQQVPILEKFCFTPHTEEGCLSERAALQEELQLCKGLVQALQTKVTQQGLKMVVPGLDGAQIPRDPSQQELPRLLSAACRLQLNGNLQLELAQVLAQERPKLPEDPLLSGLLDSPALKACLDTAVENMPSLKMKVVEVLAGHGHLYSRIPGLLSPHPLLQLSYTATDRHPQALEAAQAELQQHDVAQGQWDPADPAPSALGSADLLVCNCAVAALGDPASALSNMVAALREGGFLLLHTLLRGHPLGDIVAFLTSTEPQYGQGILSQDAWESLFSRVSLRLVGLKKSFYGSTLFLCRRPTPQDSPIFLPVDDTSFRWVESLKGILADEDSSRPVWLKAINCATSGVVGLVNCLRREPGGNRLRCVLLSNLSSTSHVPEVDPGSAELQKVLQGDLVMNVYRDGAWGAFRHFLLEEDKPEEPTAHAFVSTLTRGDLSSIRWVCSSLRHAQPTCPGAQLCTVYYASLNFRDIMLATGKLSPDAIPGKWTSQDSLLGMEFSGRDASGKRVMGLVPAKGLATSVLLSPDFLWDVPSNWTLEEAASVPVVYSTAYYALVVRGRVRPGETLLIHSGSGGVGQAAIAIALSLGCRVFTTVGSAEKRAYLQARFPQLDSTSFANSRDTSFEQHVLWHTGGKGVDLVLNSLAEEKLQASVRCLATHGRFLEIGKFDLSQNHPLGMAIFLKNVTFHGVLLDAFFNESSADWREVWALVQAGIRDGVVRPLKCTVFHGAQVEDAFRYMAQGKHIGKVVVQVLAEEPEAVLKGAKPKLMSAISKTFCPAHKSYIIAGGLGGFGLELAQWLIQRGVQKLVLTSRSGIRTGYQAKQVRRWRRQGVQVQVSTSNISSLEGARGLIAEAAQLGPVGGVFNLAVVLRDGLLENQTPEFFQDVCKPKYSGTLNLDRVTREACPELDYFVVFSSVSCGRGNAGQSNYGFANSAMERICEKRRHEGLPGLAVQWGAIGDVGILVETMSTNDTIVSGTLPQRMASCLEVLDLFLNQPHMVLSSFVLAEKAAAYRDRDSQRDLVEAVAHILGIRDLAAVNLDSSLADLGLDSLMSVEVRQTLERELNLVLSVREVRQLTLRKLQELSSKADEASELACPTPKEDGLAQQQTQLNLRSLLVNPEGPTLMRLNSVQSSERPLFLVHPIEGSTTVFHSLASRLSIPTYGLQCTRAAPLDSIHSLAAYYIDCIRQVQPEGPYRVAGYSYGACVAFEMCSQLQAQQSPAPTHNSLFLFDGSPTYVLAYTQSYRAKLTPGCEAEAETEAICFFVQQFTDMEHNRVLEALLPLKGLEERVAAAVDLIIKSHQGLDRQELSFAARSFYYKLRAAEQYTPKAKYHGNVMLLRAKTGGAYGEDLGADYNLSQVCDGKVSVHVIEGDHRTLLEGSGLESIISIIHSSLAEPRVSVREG
Cytochrome P450 3A4, sequence (P08684 whole entry): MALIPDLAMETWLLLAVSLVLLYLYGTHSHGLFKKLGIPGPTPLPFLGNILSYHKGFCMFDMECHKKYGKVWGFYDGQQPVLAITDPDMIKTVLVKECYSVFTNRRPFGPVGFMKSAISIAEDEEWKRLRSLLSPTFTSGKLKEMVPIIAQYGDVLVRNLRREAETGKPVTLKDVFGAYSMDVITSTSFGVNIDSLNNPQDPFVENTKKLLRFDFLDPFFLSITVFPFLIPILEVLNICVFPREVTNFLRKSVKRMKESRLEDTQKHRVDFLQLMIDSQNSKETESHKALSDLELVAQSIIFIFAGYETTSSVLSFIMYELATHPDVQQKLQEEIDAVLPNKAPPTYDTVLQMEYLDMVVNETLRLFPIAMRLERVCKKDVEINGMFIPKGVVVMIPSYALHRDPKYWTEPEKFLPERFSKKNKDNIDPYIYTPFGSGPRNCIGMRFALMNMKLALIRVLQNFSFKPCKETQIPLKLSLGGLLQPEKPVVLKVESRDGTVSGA
Induced myeloid leukemia cell differentiation protein Mcl-1, sequence (Q07820 whole entry): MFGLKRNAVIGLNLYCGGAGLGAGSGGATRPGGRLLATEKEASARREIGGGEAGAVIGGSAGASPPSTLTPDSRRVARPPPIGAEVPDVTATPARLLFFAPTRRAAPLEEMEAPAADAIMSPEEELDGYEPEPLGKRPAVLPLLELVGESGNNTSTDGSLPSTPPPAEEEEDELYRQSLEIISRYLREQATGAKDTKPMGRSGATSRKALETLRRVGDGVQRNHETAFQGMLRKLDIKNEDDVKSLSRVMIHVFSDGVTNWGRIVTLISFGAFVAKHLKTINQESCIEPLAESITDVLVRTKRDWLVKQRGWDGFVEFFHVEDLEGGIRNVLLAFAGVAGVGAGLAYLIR

What is called AC50 is the concentration at which the activity in the assay is half-maximal. On to `N#Cc1cccc(-c2cc(NCc3cccs3)ncn2)c1`, for which the AC50 is 20 µM (inconclusive) in data set [1] and 1.58 µM (inconclusive) in [2].

With `CC(C)CO/N=C1/[C@H]2O[C@@H]2[C@@H](O)[C@H]2[C@H]1CCn1c(=O)n(-c3ccccc3)c(=O)n12`, the AC50 entry in data set [3] is “inconclusive”.

Usually EC50 stands for the concentration that produces a half-maximal response. Usually IC50 stands for the concentration at which inhibition is half-maximal. `N#C/C(=C/c1cn(-c2ccccc2)nc1-c1cccc(OCc2ccc(F)cc2)c1)C(=O)NCCCn1ccnc1`: the EC50 was 1.46 µM (active) in data set [4], 23.4 µM (active) in data set [6], 21.7 µM (active) in [8] and > 30 µM (not active) in data set [9]. The IC50 in data set [5] is 81.1 µM (active). For the same compound, the AC50 in data set [7] was 2.5 µM (active).

In the case of `Cc1cc(C)n(CCc2nc(-c3ccc(-c4ccccc4)cc3)cs2)n1`, the IC50 in [10] is 23.9 µM (active); in data set [11], 59.3 µM (active); in data set [12] it was 4.98 µM (active); in [13], 20.5 µM (active).

`CN(C)S(=O)(=O)c1ccc(Nc2nc(C3CC3)nc3c2nnn3Cc2ccccc2Cl)cc1`: in data set [14], the IC50 was > 80 µM (inactive). Moreover, in [15], the AC50 was 4.71 µM (active).

As for `CCCc1cc2c(cc1NC(=O)c1ccc(Br)cc1)OCO2`, the AC50 in data set [16] is 1.26 µM (inconclusive); in [17], 2.82 µM (inconclusive); in data set [1], 0.708 µM (inconclusive). The IC50 in data set [18] was > 79 µM (inactive).

As to `COc1ccc2c(c1)C(=O)N1[C@H]3c4cc(Br)ccc4OC[C@@H]3[C@H](c3ccccc3)[C@]1(C)C(=O)N2`, the IC50 is > 80 µM (inactive) in data set [14], 18 µM (active) in data set [19] and 17.1 µM (active) in [20].

As for `Cc1cnc(CNc2ncnc3ccc(-c4ccc(N(C)C)cc4)cc23)cn1`, the AC50 in data set [1] was 25.1 µM (inconclusive).

In the case of `Cc1cc(C)cc(NS(=O)(=O)c2ccc3[nH]cc(C(=O)NCc4ccco4)c(=O)c3c2)c1`, the values for the EC50 in data set [6] and in data set [8] were 2.68 µM (active) and 1.78 µM (active), respectively. For the same compound, the AC50 in data set [7] was 0.428 µM (active).

As to `CN(C)c1ccc(NC(=O)CSc2nc(N)c(C(=O)Nc3ccc(N(C)C)cc3)s2)cc1`, the AC50 in data set [1] is 17.8 µM (inconclusive).

As for `Oc1nc(S)nc(SCc2c(Cl)c(Cl)c(Cl)c(Cl)c2Cl)n1`, the AC50 in data set [1] was 3.98 µM (inconclusive).

Take `COc1ccc(C(=O)c2cnc3ccccc3c2-c2ccccc2)cc1`: the figures for the AC50 in [17] and in data set [1] were 7.08 µM (inconclusive) and 31.6 µM (inconclusive), respectively.

Consider `CC(C)OCCCN1C(=O)c2[nH]nc(-c3ccccc3O)c2C1c1cccc(Cl)c1` (centres undefined), for which the EC50 in [6] was 25.2 µM (active); in [8], 27.6 µM (active).

Consider `Cc1cc2cc(CN(Cc3cccs3)S(=O)(=O)c3ccc4c(c3)OCCO4)c(O)nc2cc1C`, for which the EC50 is 33.8 µM (active) in data set [6] and 30.2 µM (active) in [8].

`Cc1ccc(O)c(NC(=O)c2cc(-c3ccco3)on2)c1`: the IC50 in [14] is > 80 µM (inactive); in data set [10] it was 21.3 µM (active); in data set [11], > 100 µM (inactive); in data set [12], 8.57 µM (active); in data set [13], > 100 µM (inactive).

`O=C(c1csnn1)N1CCC2(CCCN(c3ccccc3)C2)CC1`: in data set [1], the AC50 was 20 µM (inconclusive).

In the case of `CCOC(=O)NNc1ccc2nonc2c1[N+](=O)[O-]`, the IC50 in data set [10] is 8.38 µM (active); in [11], 4.85 µM (active); in data set [21], 42.2 µM (active); in [12], 10.8 µM (active); in [13] it was 4.96 µM (active).

Turning to `O=C(c1cccc(F)c1)N1CCC2(CCCN(c3ncccn3)C2)CC1`, the AC50 was 25.1 µM (inconclusive) in data set [16] and 31.6 µM (inconclusive) in [1].

For `CCOC(=O)C(C(=O)OCC)C(Nc1cccc(Br)c1)c1ccccc1` (centres undefined), the EC50 in data set [6] was 115 µM (active); in [8], 147 µM (active).
